According to ChEMBL document CHEMBL1201862, “PubChem BioAssay data set” (2004):
The source made the active and inactive calls.

Experiments:
[1] = molecular target: T1, Low molecular weight phosphotyrosine protein phosphatase (Homo sapiens, UniProt P24666); assay type: functional; conditions: read-out: IC50_Mean
T1 sequence (P24666 whole entry): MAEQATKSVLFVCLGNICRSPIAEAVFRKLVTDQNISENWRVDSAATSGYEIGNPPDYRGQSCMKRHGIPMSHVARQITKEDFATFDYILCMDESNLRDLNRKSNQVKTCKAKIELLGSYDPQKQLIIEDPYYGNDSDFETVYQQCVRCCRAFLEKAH

[2] = molecular target: T2, Short transient receptor potential channel 4 (Mus musculus, UniProt Q9QUQ5); assay: block of DAMGO-driven TRPC4 calcium entry – cell-based, HEK293 TRPC4/mu-opioid, Fluo-4 calcium, dose response (AID 434942); assay type: functional;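 note: potency of inhibitors blocking the TRPC4 calcium response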
T2 sequence (Q9QUQ5 whole entry): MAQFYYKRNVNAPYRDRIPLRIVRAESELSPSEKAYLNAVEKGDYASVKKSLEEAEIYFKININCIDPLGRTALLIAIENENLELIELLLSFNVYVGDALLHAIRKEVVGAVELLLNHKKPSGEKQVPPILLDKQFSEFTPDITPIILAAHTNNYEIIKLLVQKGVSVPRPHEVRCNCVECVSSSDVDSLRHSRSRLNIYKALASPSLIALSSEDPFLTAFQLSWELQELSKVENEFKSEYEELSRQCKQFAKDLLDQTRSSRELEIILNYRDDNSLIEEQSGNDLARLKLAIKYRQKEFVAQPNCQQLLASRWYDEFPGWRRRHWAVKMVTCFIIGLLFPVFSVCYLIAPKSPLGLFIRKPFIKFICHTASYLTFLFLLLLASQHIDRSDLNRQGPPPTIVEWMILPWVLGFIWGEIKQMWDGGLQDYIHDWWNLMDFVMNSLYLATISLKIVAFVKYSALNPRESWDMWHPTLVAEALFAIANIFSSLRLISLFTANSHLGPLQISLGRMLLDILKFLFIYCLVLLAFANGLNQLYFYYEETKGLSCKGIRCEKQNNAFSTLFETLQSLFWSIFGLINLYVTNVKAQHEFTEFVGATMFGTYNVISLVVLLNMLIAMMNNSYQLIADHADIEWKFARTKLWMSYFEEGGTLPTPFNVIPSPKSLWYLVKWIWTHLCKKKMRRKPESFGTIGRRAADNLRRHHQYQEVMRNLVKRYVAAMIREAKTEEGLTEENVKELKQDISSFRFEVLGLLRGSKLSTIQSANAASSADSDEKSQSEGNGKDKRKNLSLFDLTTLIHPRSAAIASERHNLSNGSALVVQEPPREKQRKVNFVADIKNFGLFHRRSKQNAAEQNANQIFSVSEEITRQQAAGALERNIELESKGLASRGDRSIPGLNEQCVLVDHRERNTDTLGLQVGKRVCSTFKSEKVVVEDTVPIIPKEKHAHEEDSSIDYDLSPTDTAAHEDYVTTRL

[3] = molecular target: T3, Tyrosine-protein phosphatase non-receptor type 22 (Homo sapiens, UniProt Q9Y2R2); assay: PTPN22 enzyme inhibitors – biochemical, fluorescence, LYP catalytic domain, selectivity assay for LMPTP inhibitor project, dose response (AID 652006); assay type: functional; conditions: read-out: IC50_Mean
T3 sequence (Q9Y2R2 whole entry): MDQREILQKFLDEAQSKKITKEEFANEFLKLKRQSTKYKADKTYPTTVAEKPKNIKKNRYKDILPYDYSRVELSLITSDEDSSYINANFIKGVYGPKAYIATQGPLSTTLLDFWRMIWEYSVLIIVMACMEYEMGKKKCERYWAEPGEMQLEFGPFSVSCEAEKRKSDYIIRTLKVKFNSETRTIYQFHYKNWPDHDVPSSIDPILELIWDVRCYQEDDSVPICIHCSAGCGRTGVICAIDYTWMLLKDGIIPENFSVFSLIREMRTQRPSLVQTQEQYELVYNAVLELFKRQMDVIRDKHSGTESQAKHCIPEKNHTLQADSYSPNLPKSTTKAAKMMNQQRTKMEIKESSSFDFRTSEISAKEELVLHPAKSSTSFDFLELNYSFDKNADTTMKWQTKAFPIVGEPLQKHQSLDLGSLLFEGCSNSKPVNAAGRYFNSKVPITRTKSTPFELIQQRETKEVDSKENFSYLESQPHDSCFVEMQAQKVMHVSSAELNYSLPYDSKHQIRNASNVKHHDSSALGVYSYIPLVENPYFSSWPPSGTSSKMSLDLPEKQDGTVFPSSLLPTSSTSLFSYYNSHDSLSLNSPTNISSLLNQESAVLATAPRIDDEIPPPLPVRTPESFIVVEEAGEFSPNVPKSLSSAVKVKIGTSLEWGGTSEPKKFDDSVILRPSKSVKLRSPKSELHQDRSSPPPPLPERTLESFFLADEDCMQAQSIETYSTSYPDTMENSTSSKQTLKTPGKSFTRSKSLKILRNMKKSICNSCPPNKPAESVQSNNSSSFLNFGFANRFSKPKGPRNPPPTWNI

[4] = molecular target: Dual specificity tyrosine-phosphorylation-regulated kinase 1A (Rattus norvegicus, UniProt Q63470); assay type: biochemical, Homo sapiens
[5] = molecular target: T1, Low molecular weight phosphotyrosine protein phosphatase; assay type: functional; conditions: read-out: IC50_Mean; remark: listed apart in the source
[6] = molecular target: T4, Rac GTPase-activating protein 1 (Homo sapiens, UniProt Q9H0H5); assay: blockers of MgcRacGAP-driven Rac1 GTP hydrolysis – biochemical, ADP Hunter fluorescence, primary and confirmatory, confirmation (AID 624330); assay type: functional
T4 sequence (Q9H0H5 whole entry): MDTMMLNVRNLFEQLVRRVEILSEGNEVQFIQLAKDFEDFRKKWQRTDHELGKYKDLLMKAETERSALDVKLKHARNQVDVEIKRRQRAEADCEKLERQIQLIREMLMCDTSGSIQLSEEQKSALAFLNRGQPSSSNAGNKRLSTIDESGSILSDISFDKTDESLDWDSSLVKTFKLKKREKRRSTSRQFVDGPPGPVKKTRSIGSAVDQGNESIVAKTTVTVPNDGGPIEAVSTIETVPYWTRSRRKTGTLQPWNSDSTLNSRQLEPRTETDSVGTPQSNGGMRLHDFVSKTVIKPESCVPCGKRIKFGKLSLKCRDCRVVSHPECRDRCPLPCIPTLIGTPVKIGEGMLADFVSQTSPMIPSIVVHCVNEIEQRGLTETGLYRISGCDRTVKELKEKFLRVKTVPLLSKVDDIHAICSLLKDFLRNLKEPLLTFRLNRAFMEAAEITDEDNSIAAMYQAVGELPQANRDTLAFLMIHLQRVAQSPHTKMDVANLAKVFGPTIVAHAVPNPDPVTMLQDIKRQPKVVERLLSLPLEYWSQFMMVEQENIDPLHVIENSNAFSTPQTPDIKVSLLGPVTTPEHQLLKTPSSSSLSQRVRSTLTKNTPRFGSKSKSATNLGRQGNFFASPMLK

[7] = molecular target: T5, Coagulation factor XII (Homo sapiens, UniProt P00748); assay type: functional;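 note: activated factor XIIa alpha cleaving a fluorogenic AMC peptide substrate; inhibitor potency from loss of enzyme activity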
T5 sequence (P00748 whole entry): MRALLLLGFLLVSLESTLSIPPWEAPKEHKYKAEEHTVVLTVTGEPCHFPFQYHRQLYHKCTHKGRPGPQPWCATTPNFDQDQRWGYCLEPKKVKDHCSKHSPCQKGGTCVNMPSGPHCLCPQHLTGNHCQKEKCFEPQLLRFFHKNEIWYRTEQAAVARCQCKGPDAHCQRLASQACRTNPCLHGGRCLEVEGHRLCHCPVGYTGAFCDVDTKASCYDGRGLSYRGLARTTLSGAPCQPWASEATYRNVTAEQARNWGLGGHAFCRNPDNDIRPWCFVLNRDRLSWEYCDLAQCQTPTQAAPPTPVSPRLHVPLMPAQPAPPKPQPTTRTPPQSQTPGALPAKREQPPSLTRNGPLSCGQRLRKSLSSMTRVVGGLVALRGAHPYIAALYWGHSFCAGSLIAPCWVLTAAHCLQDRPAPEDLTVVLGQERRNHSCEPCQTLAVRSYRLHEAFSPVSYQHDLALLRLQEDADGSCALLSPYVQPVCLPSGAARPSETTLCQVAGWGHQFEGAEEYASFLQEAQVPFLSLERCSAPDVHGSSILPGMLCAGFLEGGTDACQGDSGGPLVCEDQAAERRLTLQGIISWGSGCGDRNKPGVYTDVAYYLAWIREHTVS

[8] = molecular target: DNA dC->dU-editing enzyme APOBEC-3A (Homo sapiens, UniProt P31941); assay: SAR analysis of small molecule inhibitors of APOBEC3A DNA Deaminase via a fluorescence-based single-stranded DNA deaminase assay.; assay type: functional; conditions: read-out: IC50_Mean
Sequence of DNA dC->dU-editing enzyme APOBEC-3A (P31941 whole entry): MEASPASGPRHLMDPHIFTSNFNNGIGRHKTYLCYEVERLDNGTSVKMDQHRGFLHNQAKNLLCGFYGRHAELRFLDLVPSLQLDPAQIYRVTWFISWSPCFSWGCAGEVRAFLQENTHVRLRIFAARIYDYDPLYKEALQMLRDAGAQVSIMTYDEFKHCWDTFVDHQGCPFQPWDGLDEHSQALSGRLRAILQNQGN

[9] = molecular target: DNA dC->dU-editing enzyme APOBEC-3G (Homo sapiens, UniProt Q9HC16); assay: inhibition of APOBEC3G ssDNA deamination – biochemical, fluorescence, single-stranded DNA substrate, SAR follow-up (AID 602136); assay type: functional; conditions: read-out: IC50_Mean
Sequence of DNA dC->dU-editing enzyme APOBEC-3G (Q9HC16 whole entry): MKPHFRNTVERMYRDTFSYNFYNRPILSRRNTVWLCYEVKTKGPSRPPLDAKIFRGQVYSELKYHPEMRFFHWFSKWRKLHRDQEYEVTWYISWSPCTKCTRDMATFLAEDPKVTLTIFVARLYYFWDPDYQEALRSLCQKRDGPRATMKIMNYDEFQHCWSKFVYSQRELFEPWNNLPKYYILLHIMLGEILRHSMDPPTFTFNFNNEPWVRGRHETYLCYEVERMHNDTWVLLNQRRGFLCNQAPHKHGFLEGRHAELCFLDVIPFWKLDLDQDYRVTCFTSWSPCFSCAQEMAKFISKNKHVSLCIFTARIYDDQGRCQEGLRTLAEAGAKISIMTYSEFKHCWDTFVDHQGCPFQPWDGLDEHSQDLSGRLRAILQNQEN

[10] = molecular target: Trypsin (Sus scrofa, UniProt P00761); assay: trypsin protease activity blockade – biochemical, quenched peptide fluorescence, cherry-pick, selectivity assay for Rce1 protease inhibitor project, dose response (AID 488789)
Sequence of Trypsin (P00761 whole entry): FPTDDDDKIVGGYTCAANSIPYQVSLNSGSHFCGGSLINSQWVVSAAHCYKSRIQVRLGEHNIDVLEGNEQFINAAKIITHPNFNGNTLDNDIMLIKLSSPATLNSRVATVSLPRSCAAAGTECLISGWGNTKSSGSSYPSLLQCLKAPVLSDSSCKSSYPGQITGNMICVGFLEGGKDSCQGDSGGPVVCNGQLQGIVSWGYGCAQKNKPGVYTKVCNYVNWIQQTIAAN

[11] = molecular target: CAAX prenyl protease 1 (Saccharomyces cerevisiae S288c, UniProt P47154); assay: yeast CAAX protease Ste24 inhibition – biochemical, S. cerevisiae, plate reader, cherry-pick, dose response (AID 488815)
[12] = molecular target: CAAX prenyl protease 2 (Homo sapiens, UniProt Q9Y256); assay: inhibition of Ras-converting CAAX protease Rce1 – biochemical, yeast membranes, quenched-peptide fluorescence, cherry-pick, dose response (AID 588849)
Sequence of CAAX prenyl protease 2 (Homo sapiens, UniProt Q9Y256) (Q9Y256 whole entry): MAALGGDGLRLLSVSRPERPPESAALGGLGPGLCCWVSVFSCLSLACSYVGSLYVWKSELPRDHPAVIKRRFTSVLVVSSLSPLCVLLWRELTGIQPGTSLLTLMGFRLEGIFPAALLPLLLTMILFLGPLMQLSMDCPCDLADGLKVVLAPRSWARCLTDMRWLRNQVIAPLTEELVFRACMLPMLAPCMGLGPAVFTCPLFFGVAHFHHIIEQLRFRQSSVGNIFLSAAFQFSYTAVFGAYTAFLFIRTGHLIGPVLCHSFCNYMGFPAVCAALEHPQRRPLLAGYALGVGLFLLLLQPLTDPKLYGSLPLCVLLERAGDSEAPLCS

[13] = molecular target: T6, CAAX prenyl protease 2 (Saccharomyces cerevisiae S288c, UniProt Q03530); assay type: biochemical
T6 sequence (Q03530 whole entry): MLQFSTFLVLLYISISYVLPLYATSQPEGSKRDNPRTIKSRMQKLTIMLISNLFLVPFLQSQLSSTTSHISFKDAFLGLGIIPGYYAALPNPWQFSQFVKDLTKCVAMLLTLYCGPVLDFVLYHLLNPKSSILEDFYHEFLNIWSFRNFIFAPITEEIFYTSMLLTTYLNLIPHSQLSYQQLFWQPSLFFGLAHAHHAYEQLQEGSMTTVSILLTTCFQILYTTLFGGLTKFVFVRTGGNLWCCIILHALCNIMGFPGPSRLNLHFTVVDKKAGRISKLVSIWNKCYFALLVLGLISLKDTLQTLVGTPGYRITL

[14] = cAMP pathway inhibition in counterscreen cell line – TR-FRET cAMP detection, counter-screen for MC4R biased antagonist project, dose response (AID 602305); assay type: functional, cell-based;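 note: U2OS cells stimulated with forskolin near its EC80 as the cAMP inducer; potency is for inhibition of forskolin-stimulated cAMP signaling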
[15] = molecular target: Melanocortin receptor 4 (Homo sapiens, UniProt P32245); assay: inhibitors of MC4R cAMP signaling – cell-based, TR-FRET, biased antagonists, dose response (AID 602298); assay type: functional;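 note: antagonist potency against agonist-stimulated cAMP production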
Sequence of Melanocortin receptor 4 (P32245 whole entry): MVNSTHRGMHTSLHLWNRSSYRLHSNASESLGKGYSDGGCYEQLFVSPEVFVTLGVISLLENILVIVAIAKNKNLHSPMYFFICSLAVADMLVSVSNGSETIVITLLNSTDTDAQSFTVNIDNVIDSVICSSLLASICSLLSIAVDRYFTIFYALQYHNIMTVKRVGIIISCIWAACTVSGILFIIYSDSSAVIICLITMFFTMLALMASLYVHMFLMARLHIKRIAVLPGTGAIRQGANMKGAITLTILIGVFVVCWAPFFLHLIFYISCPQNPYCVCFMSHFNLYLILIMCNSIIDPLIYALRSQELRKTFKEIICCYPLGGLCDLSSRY

[16] = system: Vero; assay: cells; assay type: functional; conditions: Chlorocebus sabaeus
[17] = molecular target: Mitochondrial peptide methionine sulfoxide reductase (Bos taurus, UniProt P54149); assay: Absorbance-based biochemical high throughput dose response assay for activators of Methionine sulfoxide reductase A (MsrA).; assay type: functional
Sequence of Mitochondrial peptide methionine sulfoxide reductase (P54149 whole entry, the tested form may be a part): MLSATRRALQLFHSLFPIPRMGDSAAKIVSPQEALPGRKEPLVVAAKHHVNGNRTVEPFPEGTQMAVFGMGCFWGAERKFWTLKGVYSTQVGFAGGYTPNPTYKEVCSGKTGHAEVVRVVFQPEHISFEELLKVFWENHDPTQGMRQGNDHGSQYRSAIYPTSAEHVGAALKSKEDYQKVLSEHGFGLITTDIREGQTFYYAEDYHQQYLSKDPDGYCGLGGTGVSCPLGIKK

[18] = molecular target: T7, Polyadenylate-binding protein 1 (Homo sapiens, UniProt P11940); assay: MLLE domain peptide-binding blockers, IC50 – biochemical, fluorescence polarization, FITC-PAM2 peptide, dose response (AID 602259); assay type: functional; conditions: read-out: IC50_Mean
T7 sequence (P11940 whole entry, the tested form may be a part): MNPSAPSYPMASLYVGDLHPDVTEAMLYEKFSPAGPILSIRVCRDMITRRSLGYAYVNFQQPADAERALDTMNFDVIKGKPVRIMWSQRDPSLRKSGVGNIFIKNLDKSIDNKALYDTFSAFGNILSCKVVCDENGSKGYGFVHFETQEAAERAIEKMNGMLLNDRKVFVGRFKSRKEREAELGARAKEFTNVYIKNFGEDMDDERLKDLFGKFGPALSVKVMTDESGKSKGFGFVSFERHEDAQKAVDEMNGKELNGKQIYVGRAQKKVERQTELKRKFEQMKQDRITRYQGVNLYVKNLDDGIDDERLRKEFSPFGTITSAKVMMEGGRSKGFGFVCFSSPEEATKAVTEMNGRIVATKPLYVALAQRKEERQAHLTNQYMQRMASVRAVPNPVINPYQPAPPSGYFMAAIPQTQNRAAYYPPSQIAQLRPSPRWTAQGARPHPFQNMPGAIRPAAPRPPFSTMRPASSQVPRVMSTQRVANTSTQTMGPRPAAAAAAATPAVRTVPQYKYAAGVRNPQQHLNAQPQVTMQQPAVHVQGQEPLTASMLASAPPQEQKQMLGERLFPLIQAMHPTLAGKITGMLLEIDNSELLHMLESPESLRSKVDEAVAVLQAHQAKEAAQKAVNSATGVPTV

[19] = molecular target: Genome polyprotein (dengue virus type 2, UniProt P29990); assay: flavivirus cap methylation enzyme inhibition – biochemical, confirmation dose response, primary screen (AID 588689); assay type: functional
Sequence of Genome polyprotein (P29990 2492-3391 limits assumed): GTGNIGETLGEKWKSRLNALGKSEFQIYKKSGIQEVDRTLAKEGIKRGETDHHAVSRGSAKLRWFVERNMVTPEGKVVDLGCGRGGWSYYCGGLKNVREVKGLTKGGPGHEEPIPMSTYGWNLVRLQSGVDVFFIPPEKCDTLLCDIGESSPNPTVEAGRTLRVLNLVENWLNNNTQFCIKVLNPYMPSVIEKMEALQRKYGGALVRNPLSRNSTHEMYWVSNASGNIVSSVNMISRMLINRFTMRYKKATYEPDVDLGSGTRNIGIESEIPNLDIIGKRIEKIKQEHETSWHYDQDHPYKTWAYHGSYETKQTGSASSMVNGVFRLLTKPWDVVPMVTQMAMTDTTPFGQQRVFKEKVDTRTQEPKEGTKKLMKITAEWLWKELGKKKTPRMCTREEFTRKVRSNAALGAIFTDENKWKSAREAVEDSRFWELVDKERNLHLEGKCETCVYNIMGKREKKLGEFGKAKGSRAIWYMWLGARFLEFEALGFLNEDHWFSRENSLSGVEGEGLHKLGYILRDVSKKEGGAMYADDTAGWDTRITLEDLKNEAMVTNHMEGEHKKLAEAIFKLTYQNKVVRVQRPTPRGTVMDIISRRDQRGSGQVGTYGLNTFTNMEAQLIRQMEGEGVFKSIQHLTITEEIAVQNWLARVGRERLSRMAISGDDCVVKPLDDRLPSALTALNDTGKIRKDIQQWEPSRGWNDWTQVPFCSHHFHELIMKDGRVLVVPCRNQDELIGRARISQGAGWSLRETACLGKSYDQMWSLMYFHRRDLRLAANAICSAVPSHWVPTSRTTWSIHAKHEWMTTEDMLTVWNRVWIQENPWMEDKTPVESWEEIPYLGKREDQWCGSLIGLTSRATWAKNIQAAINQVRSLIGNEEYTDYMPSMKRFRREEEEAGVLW

[20] = molecular target: T7, Polyadenylate-binding protein 1; assay: MLLE binding blockers, Cy5 peptide tracer – biochemical, fluorescence polarization, Cy5-PAM2 peptide, secondary, miRNA deadenylation inhibitor project, dose response (AID 602260); assay type: functional; conditions: read-out: IC50_Mean
[21] = THP-1 cell cytotoxicity, cytotoxicity control, set 4 (AID 504911); assay type: functional; conditions: Mycobacterium tuberculosis
[22] = molecular target: Aryl hydrocarbon receptor (Homo sapiens, UniProt P35869); conditions: Potency;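 note: confirmatory quantitative high-throughput screen measuring activation of the AhR signaling pathway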
Sequence of Aryl hydrocarbon receptor (P35869 whole entry): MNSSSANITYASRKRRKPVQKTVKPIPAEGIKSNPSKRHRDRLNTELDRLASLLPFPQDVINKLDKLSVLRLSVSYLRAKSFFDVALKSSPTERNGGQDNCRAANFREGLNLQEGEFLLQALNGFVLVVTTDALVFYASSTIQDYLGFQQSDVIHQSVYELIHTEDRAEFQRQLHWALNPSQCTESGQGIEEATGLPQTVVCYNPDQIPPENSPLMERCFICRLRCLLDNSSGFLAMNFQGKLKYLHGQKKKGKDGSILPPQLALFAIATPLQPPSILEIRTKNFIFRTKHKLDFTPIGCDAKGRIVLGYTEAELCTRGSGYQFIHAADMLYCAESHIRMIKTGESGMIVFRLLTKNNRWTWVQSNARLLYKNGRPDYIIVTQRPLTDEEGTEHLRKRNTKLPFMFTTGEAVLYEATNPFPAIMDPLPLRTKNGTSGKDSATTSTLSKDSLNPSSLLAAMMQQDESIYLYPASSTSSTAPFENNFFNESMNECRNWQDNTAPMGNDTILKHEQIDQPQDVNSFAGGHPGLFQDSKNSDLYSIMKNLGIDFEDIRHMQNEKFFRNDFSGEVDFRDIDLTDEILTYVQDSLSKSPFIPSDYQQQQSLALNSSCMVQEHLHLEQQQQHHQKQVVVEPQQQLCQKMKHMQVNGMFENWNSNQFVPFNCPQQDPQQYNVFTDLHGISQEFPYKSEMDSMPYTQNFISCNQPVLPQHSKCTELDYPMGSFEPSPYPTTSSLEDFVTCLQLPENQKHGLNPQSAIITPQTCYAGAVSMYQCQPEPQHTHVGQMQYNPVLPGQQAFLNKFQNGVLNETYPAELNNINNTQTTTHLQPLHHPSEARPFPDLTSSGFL

[23] = molecular target: Cytochrome P450 3A4 (Homo sapiens, UniProt P08684); conditions: Potency;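 note: confirmatory qHTS run detecting inhibitors and substrates of CYP3A4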
Sequence of Cytochrome P450 3A4 (P08684 whole entry): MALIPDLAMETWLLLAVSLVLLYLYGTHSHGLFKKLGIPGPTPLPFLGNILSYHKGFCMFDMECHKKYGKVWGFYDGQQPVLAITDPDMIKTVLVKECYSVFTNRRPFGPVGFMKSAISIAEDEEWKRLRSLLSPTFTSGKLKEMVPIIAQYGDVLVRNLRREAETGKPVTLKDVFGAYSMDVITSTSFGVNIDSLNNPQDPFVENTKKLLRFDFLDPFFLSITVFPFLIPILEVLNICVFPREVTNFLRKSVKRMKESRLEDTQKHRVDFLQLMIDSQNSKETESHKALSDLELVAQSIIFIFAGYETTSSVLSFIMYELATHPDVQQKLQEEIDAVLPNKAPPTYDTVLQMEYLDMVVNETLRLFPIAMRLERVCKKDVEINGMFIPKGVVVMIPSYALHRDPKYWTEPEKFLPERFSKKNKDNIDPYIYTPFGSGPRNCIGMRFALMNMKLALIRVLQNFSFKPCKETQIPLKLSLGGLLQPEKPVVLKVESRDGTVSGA

Question: Which IC50 [1] does the source give for `Cc1cc(N2CCC(C)CC2)nc2cccc(O)c12` here?
Answer: 9.87 µM (active)

Question: And the EC50 [2]?
Answer: 0.335 µM (active)

Question: And the IC50 [3]?
Answer: 80 µM (inactive)

Question: What about the AC50 [4] of the same compound?
Answer: 14.3 µM (active)

Question: What about the IC50 [5] of the same compound?
Answer: 13.2 µM (active)

Question: What does the source list for `O=C(CNCc1ccccn1)Nc1cc(C(F)(F)F)ccc1N1CCOCC1`?
Answer: IC50 [6]: 138 µM (active); IC50 [7]: > 50 µM (inactive); IC50 [8]: > 99 µM (inactive); IC50 [9]: > 99 µM (inactive)

Question: For `COC(=O)c1sc2cnccc2c1N`, which AC50 [10] is on record?
Answer: 9.63 µM (active)

Question: And the AC50 [11]?
Answer: 4.39 µM (active)

Question: What about the AC50 [12] of the same compound?
Answer: 2.57 µM (active)

Question: And the AC50 [13]?
Answer: 14 µM (active)

Question: Which results are given for `COC(=O)C=C1CCC2C3CCC4=CC(=O)C(Br)CC4(C)C3C(=O)CC12C` (stereo not given)?
Answer: IC50 [14]: > 64.6 µM (inactive); IC50 [15]: > 64.6 µM (inactive); CC50 [16]: > 25 µM (active)

Question: Which results are given for `O=C1c2ccccc2C(=O)c2c(/C=C/N3CCCCC3)ccnc21`?
Answer: EC50 [17]: > 104 µM (inactive); IC50 [18]: 50.2 µM (inactive); IC50 [19]: 61.6 µM (active); IC50 [20]: > 66 µM (inactive)

Question: With `COc1cccc(NC(=O)CSc2nc3c(c(=O)[nH]2)CCC3)c1` as the compound, how does the CC50 [21] read?
Answer: > 100 µM (active)

Question: Which IC50 [8] does the source give for `O=C(CSc1nnc2scc(-c3ccccc3)n12)Nc1cccc(C(F)(F)F)c1` here?
Answer: > 99 µM (inactive)

Question: What about the IC50 [9] of the same compound?
Answer: > 99 µM (inactive)

Question: With `COc1ccc2nc(N)sc2c1` as the compound, how does the AC50 [22] read?
Answer: 44.7 µM (inconclusive)

Question: What about the AC50 [23] of the same compound?
Answer: 31.6 µM (inconclusive)
